Measured values as given in PMC6269914, “In Vitro Evaluation of Novel Inhibitors against the NS2B-NS3 Protease of Dengue Fever Virus Type 4” (Molecules, 2013).

Tests used:
DENV4 NS2B-NS3pro [1] = molecular target: T1, DENV4 NS2B-NS3pro (Dengue virus type 4, UniProt Q2YHF0, DELINS1442-1474GGGGSGGGG); experiment: In vitro inhibition assay of recombinant NS2B-NS3pro with fluorogenic AMC peptide substrate; assay type: biochemical, dengue virus type 4 (DENV4); conditions: primary inhibition assay at a 100 μM concentration of inhibitors; Table S1
DENV4 NS2B-NS3pro [2] = molecular target: T1, DENV4 NS2B-NS3pro; experiment: Inhibitor enzyme kinetics (Lineweaver-Burk and Dixon plots) against NS2B-NS3pro; assay type: biochemical, dengue virus type 4 (DENV4); conditions: AMC peptide substrates
Method: Inhibitory kinetic experiments were performed at different constant inhibitor concentrations and different substrate concentrations. Lineweaver–Burk and Dixon plots were used to analyze the inhibition modes of these compounds. Ki values were calculated from the Dixon plots.
The type of inhibition was determined using Lineweaver–Burk plots, and Ki values were determined with a Dixon plot (1/v as a function of [I], inhibitor concentration) from different inhibitor concentrations.

T1 sequence (Q2YHF0 1475-1660, added parts left off, stated change not applied): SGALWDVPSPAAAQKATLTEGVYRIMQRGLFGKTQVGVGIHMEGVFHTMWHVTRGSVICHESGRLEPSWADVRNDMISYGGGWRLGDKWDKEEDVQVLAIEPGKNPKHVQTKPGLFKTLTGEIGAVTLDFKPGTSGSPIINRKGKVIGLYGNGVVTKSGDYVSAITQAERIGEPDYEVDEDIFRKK

Row | Compound | Inhibition Activity (DENV4 NS2B-NS3pro [1]) | Inhibition mode (DENV4 NS2B-NS3pro [2])
1 | CCN(CC)CCn1c(NC(=O)c2ccc(Cn3nc([N+](=O)[O-])c(Cl)c3C)o2)nc2ccccc21 [Compound 2, 5-((4-chloro-5-methyl-3-nitro-1H-pyrazol-1-yl)methyl)-N-(1-(2-(diethylamino)ethyl)-1H-benzo[d]imidazol-2-yl)furan-2-carboxamide] | 95.23% | competitive inhibitors
2 | CC(=O)N1N=C(c2cc(-c3ccccc3)nc3ccccc23)OC1c1ccc(C(=O)O)cc1 (stereo not shown) [Compound 14, 4-(3-acetyl-5-(2-phenylquinolin-4-yl)-2,3-dihydro-1,3,4-oxadiazol-2-yl)benzoic acid] | 98.15% | competitive inhibitors
3 | Cc1cccc(C)c1-n1c(SCc2cc(=O)n3cc(Cl)ccc3n2)nc2c(sc(=S)n2-c2c(C)cccc2C)c1=O [Compound 22, 5-[[(7-chloro-4-oxo-4H-pyrido[1,2-a]pyrimidin-2-yl)methyl)sulfanyl)-3,6-bis(2,6-dimethylphenyl)-2-thioxo-2,3-dihydro[1,3]thiazolo[4,5-d]pyrimidin-7(6H)-one] | 91.65% | competitive inhibitors
4 | N-(1,5-dimethyl-3-oxo-2-phenyl-2,3-dihydro-1H-pyrazol-4-yl)-2-((5,9-dimethyl-[1,2,4]triazolo[4,3-a]quinolin-1-yl)thio)acetamide [Compound 26] | 28.11% | –
5 | N-(1-benzyl-1H-benzo[d]imidazol-2-yl)-5-((3-nitro-1H-1,2,4-triazol-1-yl)methyl)furan-2-carboxamide [Compound 32] | 45.55% | –
6 | N-(3-(4-cyclohexylpiperazin-1-yl)propyl)-1-(5-(2-oxopyrrolidin-1-yl)-1,3,4-thiadiazol-2-yl)piperidine-3-carboxamide [Compound 23] | 17.71% | –
7 | N-(3-(4-ethylpiperazin-1-yl)propyl)-1-(5-(2-oxopyrrolidin-1-yl)-1,3,4-thiadiazol-2-yl)piperidine-3-carboxamide [Compound 30] | 1.3% | –
8 | N-(3-(piperidin-1-yl)propyl)-1-(6-(p-tolyl)imidazo[2,1-b][1,3,4]thiadiazol-2-yl)piperidine-3-carboxamide [Compound 8] | 33.48% | –
9 | N-(4-((2-(benzo[d][1,3]dioxol-5-yl)-1,3-dioxoisoindolin-5-yl)oxy)phenyl)-1-oxo-4-phenyl-1H-isochromene-3-carboxamide [Compound 20] | 28.87% | –
10 | N-cycloheptyl-2,5-dimethyl-4-(4-(pyridin-2-yl)piperazin-1-yl)thieno[2,3-d]pyrimidine-6-carboxamide [Compound 28] | 32.84% | –
